Reference: paper doi:10.1101/2024.05.17.594634, “Protein Structure Inspired Drug Discovery” (bioRxiv, 2024)

Experiments:
[1] = test system: MDA-MB-231 breast cancer cells; assay: Eight-day colony formation assay, MDA-MB-231; format: cell-based, human; details: for efficacy ratio (cancer cell colonies to bone marrow colonies at 8 days): MDAMB231
Description: (§1) We sought to identify compounds that would inhibit the growth of cancer cells, but that also did so selectively. Inhibition of cancer cell growth is a highly sought after attribute of anticancer agents. This was assessed by measuring the ability of a compound to inhibit cell growth in eight-day colony formation assays, examining concentrations ranging from 0.017 to 40 μM. Breast, colon, lung and prostate cancer are four of the most common causes of cancer in the United States, are major causes of cancer cell death, and were examined.[64] Two cell lines for each cancer type were assessed: A549 (adenocarcinoma) and H226 (squamous carcinoma) for lung, MCF-7 (estrogen receptor [ER] positive) and MDA-MB-231 (ER negative) for breast, LNCaP (androgen receptor [AR] positive) and PC3-M (AR negative) for prostate, and HCT116 (wild type p53, mutated KRAS) and HT29 (p53 mutant) for colon.[65]
(§2) In considering effect on cancer cells, for each compound and each cell line tested we calculated the efficacy ratio, i.e., efficacy ratio = (percent of remaining cancer cell colonies)/(percent of remaining bone marrow colonies), at 8 days after treatment with 40 μM compound (S4 Fig). We considered those with an efficacy ratio below 0.5 as active and at least partially selective. The stringency of this is highlighted by considering the effect of 5FU on colon cancer, where it is frequently used clinically in proven curative settings, as well as proven life prolonging settings.[70, 71] […] Even at 5.7 μM, where 5FU is toxic to bone marrow, with hematopoietic colony formation at 38% of control, the efficacy ratio for HT29 cells has only dropped to 0.52. […] It can be seen that compounds segregate to protein sites. Specifically, of 10 compounds meeting this activity criteria (i.e., efficacy ratio <0.5), 3 were directed at the Dxr2 site, 3 at FolC2, 2 at FolC1, 1 at Dxr1 and 1 at TYLT.
(§3) Eight-day colony formation assays of cancer cells were performed as described by us.[87] Briefly, 0.5–1.0 × 10^3 cells were seeded into a 12 well plate, after 24 hours compound added and eight days later colonies (of 3 or more cells) were scored after trypan blue staining. Conditions were in replicates of N = 2. All compounds were stored under desiccated conditions in a sealed container at minus 20°C upon arrival. One day prior to use, they were placed into DMSO, stored at […] as stock solutions, thawed just prior to use, and not reused.

SK-MEL-5 cells = assay: Cell cycle analysis by flow cytometry, SK-MEL-5; format: cell-based, human; details: 50 nM, eight days
Description: (§4) Fig 8. Dxr2-017 inhibits melanoma cell growth through induction of anoikis. (A) Inhibition of melanoma cell growth. Cells were treated with different concentrations of Dxr2-017 and formation of colonies at eight days depicted. Data are expressed as percent of untreated control and are the mean ± SEM (N=3 replicates) of a single experiment. (B) No effect on cycle progression. M14 and SK-MEL-5 cells were treated for 8 days with 20 and 50 nM Dxr2-017, respectively, and phase of cell cycle determined by flow cytometry. Data are the mean ± SEM (N=3). *denotes P-value ≤0.05. (C) Transition to floating cells. Cells were treated for three days with different Dxr2-017 concentrations. Depicted are representative light photomicrographs at 20X; scale bar is150 μm. Blue and green arrows denote adherent and floating cells, respectively. (D) Cleaved caspase 3 is induced in floating cells. Cells were treated for 3 days, cell lysate from only adherent cells, or from adherent and floating cells combined, was probed by Western blot for cleaved caspase 3. All experiments were repeated at separate times, yielding similar results.
A total of 1 × 10^4 M14 cells and 1 × 10^4 SK-MEL-5 cells were seeded into 10 cm culture dishes. […] Cells were analyzed by flow cytometry (FACSCalibur3 analyzer, BD Biosciences), and the percentage of cells within G0/G1, S, and G2/M phases were determined via analysis using Modfit LT 4.0.5.

HT116 colon cancer cells = assay: Eight-day colony formation assay, HT116; format: cell-based, human
Description: as §1, §2, §3

[2] = test system: human melanoma SK-MEL-5 cells; assay: Eight-day colony formation assay, SK-MEL-5; format: cell-based
Description: We next evaluated the effect of Dxr2-017 on human melanoma M14 and SK-MEL-5 cell lines in eight-day assays (Fig 8A).
as §4, with “Cells were treated for 3 days, cell lysate from only adherent cells, or from adherent and floating cells combined, was probed by Western blot for cleaved caspase 3. All experiments were repeated at separate times, yielding similar results.” left out
Eight-day colony formation assays of cancer cells were performed as described by us.[87] Briefly, 0.5–1.0 × 10^3 cells were seeded into a 12 well plate, after 24 hours compound added and eight days later colonies (of 3 or more cells) were scored after trypan blue staining. […]

human CD34+ stem cells = assay: Bone marrow stem cell (hematopoietic) colony formation assay; format: cell-based
Description: In parallel with measuring growth inhibition of cancer cell growth, we measured effect on human hematopoietic stem cells. Hematopoietic stem cells reside in the bone marrow and are the source of mature cells present in blood.[66] Bone marrow is one of the most sensitive organs in the body to drug toxicity, especially so for anticancer drugs where it can approach 100%.[67–69] Bone marrow toxicity was measured by performing hematopoietic colony formation assays on human CD34+ stem cells. The stem cell nature of this assay permitted assessment of trilineage colony formation: granulocytic (white blood cells), erythrocytic (red blood cells) and megakaryocytic (platelets), measured by the formation of CFU-GM (colony-forming-granulocyte-macrophage), BFU-E (erythroid burst-forming unites) and CFU-GEMM (colony-forming unit-granulocyte, erythrocyte, monocyte, megakaryocyte) colonies, respectively. Two measurements were taken. Total colonies at eight days were measured, thereby matching the eight-day time frame of cancer cell colony formation assays. At fourteen days, individual colonies have differentiated, permitting quantification of each lineage. Human hematopoietic stem cell trilineage colony formation assays were performed as previously described by us.[65] Briefly, human cord blood CD34+ cells (catalog #: 70008.5) were purchased from StemCell Technology Inc., and seeded at 1 × 10^4 cells per 35 mm dish. Cells were cultured in MethoCult™ Express (StemCell Technologies, Inc.) semisolid media, per manufacturer’s instructions, in the presence of compound or vehicle control. At eight days colonies, i.e., groups of ≥ 10 cells, were counted. At fourteen days, individual colonies of BFU-E, CFU-GM and CFU-GEMM were identified based on manufacturers’ morphologic characterization criteria. Assays were run in replicates of N = 2; some were run in replicates of N = 3, as denoted.

SMILES: c1ccc2sc(-c3ccc(CNc4ccc5nnnn5n4)o3)nc2c1 [Dxr2-017]
- efficacy ratio (cancer cell colonies to bone marrow colonies at 8 days) ([1]; 5.7 μM): 0.05
- efficacy ratio (cancer cell colonies to bone marrow colonies at 8 days) ([1]; 40 μM): 0.00
- inhibition at 0.12 µM ([1]; Homo sapiens, 0.12 μM, MDA-MB-231, mean ± SD, read-out: inhibition of colony formation compared to control): 81.7 ± 15.5%
- change in cell cycle parameters (SK-MEL-5 cells): little-to-no change in cell cycle parameters
- efficacy ratio (cancer cell colonies to bone marrow colonies at 8 days) (HT116 colon cancer cells; 5.7 μM): 0.69
- efficacy ratio (cancer cell colonies to bone marrow colonies at 8 days) (HT116 colon cancer cells; 40 μM): 0.08
- IC50 ([2]; Homo sapiens, 192 h, SK-MEL-5, eight-day assay, mean ± SEM): 0.0517 ± 0.0164 µM
- fold efficacy versus bone marrow stem cells ([2]; SK-MEL-5 IC50 compared to 40 μM eight-day bone marrow treatment): > 750 fold
- mean number of colonies, % of control, 14 day (human CD34+ stem cells; 40 μM compound, 14 days, mean N=2): 57 % of control
- mean number of colonies, % of control, 8 day (human CD34+ stem cells; 40 μM compound, total colonies at 8 days, mean N=2): 70 % of control
- decrease of BFU-E compared to control (human CD34+ stem cells; 40 μM, 14 day): 97.1 ± 4.1%
- decrease of CFU-G/M compared to control (human CD34+ stem cells; 40 μM, 14 day): 49.8 ± 0.0%
- increase of CFU-GEMM compared to control (human CD34+ stem cells; 40 μM, 14 day): 16.1 ± 12.0%
- inhibition of 14-day total colony formation (human CD34+ stem cells; 40 μM, 14 day): 42.6 ± 5.8%
